{"source": "patent US20250032477A1", "about": "“COMPOUNDS, PHARMACEUTICAL COMPOSITIONS, AND METHODS FOR THE TREATMENT, PREVENTION, OR MANAGEMENT OF HYPERPROLIFERATIVE DISORDERS” (VINCERX PHARMA GMBH, priority 2021, published 2025)", "key": {"HT29 [1]": {"tested_on": "HT29", "test": "Cytotoxicity in vitro in the presence and absence of elastase (MTT)", "assay_type": "cell-based, human", "in_short": "(§1)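 Cells seeded 24 h beforehand, then treated in triplicate with compound (10^−5 to 10^−13 M) alone or with 10 nM elastase for 72 h at 37 °C. Proliferation measured by MTT (4 h reagent, overnight lysis, absorbance 570 nm), normalised to untreated cells.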"}, "NCI H292 [2]": {"tested_on": "NCI H292", "test": "Cytotoxicity in vitro in the presence and absence of elastase (MTT)", "assay_type": "cell-based, human", "in_short": "as §1"}, "786-O": {"tested_on": "786-O", "test": "Cytotoxicity in vitro in the presence and absence of elastase (MTT)", "assay_type": "cell-based, human", "in_short": "as §1"}, "SUM149 [3]": {"tested_on": "SUM149", "test": "Cytotoxicity in vitro in the presence and absence of elastase (MTT)", "assay_type": "cell-based", "in_short": "as §1"}, "[4]": {"assay_type": "physicochemical", "text": "pH dependent ring-opening by hydrolysis of the lactone ring is an issue in the camptothecin class of agents. It is a pH dependent equilibrium between closed lactone form and ring-opened hydroxy acid form which is shifted to the closed ring at acidic pH and to the opened form under basic conditions. Only the lactone form is active. […] The closed and hydrolyzed open forms are differentiable by mass using the LC-MS methods described herein.\nMethod for acidic eluent: System MS: Waters TOF instrument; System UPLC: Waters Acquity I-CLASS; Column: Waters Acquity UPLC HSS T3 1.8 μm 50×1 mm; Eluent A: 1 L Water+0.100 ml 99% Formic acid (pH 3.4); Eluent B: 1 L Acetonitrile+0.100 ml 99% Formic acid; Gradient: 0.0 min 90% A→1.2 min 5% A→2.0 min 5% A Oven: 50° C.; Flow: 0.40 ml/min; UV-Detection: 210 nm.\nMethod for basic eluent: System MS: Thermo Scientific FT-MS; System UHPLC+: Thermo Scientific UltiMate 3000; Column: Waters, BEH c18 1.7μ, 2.1×50 mm, Eluent A: 1 L Water+1.0 mL (25% Ammonia) (pH of eluent A=10.2); Eluent B: 1 L Acetonitrile; Gradient: 0.0 min 5% B→2.5 min 95% B→3.5 min 95% B; Oven: 50° C.; Flow: 0.90 ml/min; UV-Detection: 210 nm/Optimum Integration Path 210-300 nm."}, "NCI H292 [5]": {"tested_on": "NCI H292", "test": "Cytotoxicity in vitro in the presence and absence of legumain", "assay_type": "cell-based", "conditions": "Homo sapiens, NCI H292 cells"}, "HT29 [6]": {"tested_on": "HT29", "test": "Cytotoxicity in vitro in the presence and absence of legumain", "assay_type": "cell-based", "conditions": "Homo sapiens, HT-29, HT29 cells"}, "SUM149 [7]": {"tested_on": "SUM149", "test": "Cytotoxicity in vitro in the presence and absence of legumain", "assay_type": "cell-based", "conditions": "SUM149 cells"}}, "note": "pIC50: −log10 of the molar value. Like-named read-outs stand apart in the source and are kept apart here."}
{"compound": "CCCNC(=O)Nc1cccc(S(=O)(=O)Nc2cccc([C@@H](CC(=O)[O-])NC(=O)Nc3ccc(NC(=O)NCCOCCOCCOCCC(=O)N[C@@H](CC(=O)[O-])C(=O)N4CCC[C@H]4C(=O)N[C@H](C(=O)O[C@]4(CC)C(=O)OCc5c4cc4n(c5=O)Cc5c-4nc4cc(F)c(C)c6c4c5[C@@H](NC(C)=O)CC6)C(C)C)cc3)c2)c1.[Na+].[Na+]", "note": "[Compound 2, disodium (1S,9S)-1-acetamido-9-ethyl-5-fluoro-4-methyl-10,13-dioxo-2,3,9,10,13,15-hexahydro-1H,12H-benzo[de]pyrano[3′,4′:6,7]indolizino[1,2-b]quinolin-9-yl 1-[(2S)-2-(carboxylatomethyl)-17-{4-[({(1R)-2-carboxylato-1-[3-({3-[(propylcarbamoyl)amino]benzene-1-sulfonyl}amino)phenyl]ethyl}carbamoyl)amino]anilino}-4,17-dioxo-7,10,13-trioxa-3,16-diazaheptadecanan-1-oyl]-L-prolyl-L-valinate]", "values": [{"measurement": "pIC50", "setting": "HT29 [1]; HT29 cells, with 10 nM elastase, 72 h, MTT, read-out: HT29 IC50 w elastase", "value": "9.00 to 10.00"}, {"measurement": "pIC50", "setting": "HT29 [1]; HT29 cells, without elastase, 72 h, MTT, read-out: HT29 IC50 w/o", "value": "< 7.00"}, {"measurement": "pIC50", "setting": "NCI H292 [2]; NCI H292 cells, with 10 nM elastase, 72 h, MTT, read-out: NCI H292 IC 50 w elastase", "value": "9.00 to 10.00"}, {"measurement": "pIC50", "setting": "NCI H292 [2]; NCI H292 cells, without elastase, 72 h, MTT, read-out: NCI H292 IC 50 w/o", "value": "8.00 to 8.96"}, {"measurement": "pIC50", "setting": "786-O; 786-O cells, with 10 nM elastase, 72 h, MTT, read-out: 786-O IC50 w elastase", "value": "10.00 to 11.00"}, {"measurement": "pIC50", "setting": "786-O; 786-O cells, without elastase, 72 h, MTT, read-out: 786-O IC50 w/o", "value": "7.00 to 8.00"}, {"measurement": "pIC50", "setting": "SUM149 [3]; SUM149 cells, with 10 nM elastase, 72 h, MTT, read-out: SUM149 IC50 w elastase", "value": "10.00 to 11.00"}, {"measurement": "pIC50", "setting": "SUM149 [3]; SUM149 cells, without elastase, 72 h, MTT, read-out: SUM149 IC50 w/o", "value": "8.00 to 8.96"}, {"measurement": "Lactone ring form detected by LC-MS, acidic eluent", "setting": "[4]; acidic eluent (pH 3.4), UV and mass detection", "value": "only the closed form (201)"}, {"measurement": "Lactone ring form detected by LC-MS, basic eluent", "setting": "[4]; basic eluent (pH of eluent A=10.2), UV and mass detection", "value": "No open form (203) was detected"}]}
{"compound": "CCCNC(=O)Nc1cccc(S(=O)(=O)Nc2cccc([C@@H](CC(=O)O)NC(=O)Nc3ccc(NC(=O)NCCOCCOCCOCCC(=O)N[C@@H](CC(=O)O)C(=O)N4CCC[C@H]4C(=O)N[C@H](C(=O)O[C@]4(CC)C(=O)OCc5c4cc4n(c5=O)Cc5c-4nc4cc(F)c(C)c6c4c5[C@@H](N)CC6)C(C)C)cc3)c2)c1", "note": "[Compound 4, (1S,9S)-1-amino-9-ethyl-5-fluoro-4-methyl-10,13-dioxo-2,3,9,10,13,15-hexahydro-1H,12H-benzo[de]pyrano[3′,4′:6,7]indolizino[1,2-b]quinolin-9-yl N-(14-{4-[({(1R)-2-carboxy-1-[3-({3-[(propylcarbamoyl)amino]benzene-1-sulfonyl}amino)phenyl]ethyl}carbamoyl)amino]anilino}-14-oxo-4,7,10-trioxa-13-azatetradecanan-1-oyl)-L-alpha-aspartyl-L-prolyl-L-valinate]", "values": [{"measurement": "pIC50", "setting": "HT29 [1]; read-out: HT29 IC50 w elastase", "value": "10.00 to 11.00"}, {"measurement": "pIC50", "setting": "HT29 [1]; read-out: HT29 IC50 w/o", "value": "7.00 to 8.00"}, {"measurement": "pIC50", "setting": "NCI H292 [2]; read-out: NCI H292 IC 50 w elastase", "value": "10.00 to 11.00"}, {"measurement": "pIC50", "setting": "NCI H292 [2]; read-out: NCI H292 IC 50 w/o", "value": "8.00 to 8.96"}, {"measurement": "pIC50", "setting": "786-O; read-out: 786-O IC50 w elastase", "value": "10.00 to 11.00"}, {"measurement": "pIC50", "setting": "786-O; read-out: 786-O IC50 w/o", "value": "8.00 to 8.96"}, {"measurement": "pIC50", "setting": "SUM149 [3]; read-out: SUM149 IC50 w elastase", "value": "> 11.00"}, {"measurement": "pIC50", "setting": "SUM149 [3]; read-out: SUM149 IC50 w/o", "value": "8.00 to 8.96"}, {"measurement": "Lactone ring form detected by LC-MS, acidic eluent", "setting": "[4]; pH 3.4", "value": "only the closed form (301) was detected"}]}
{"compound": "CC[C@@]1(O)C(=O)OCc2c1cc1n(c2=O)Cc2c-1nc1cc(F)c(C)c3c1c2[C@@H](NC(=O)[C@H](CC(N)=O)NC(=O)[C@H](C)N(C)C(=O)[C@H](C)NC(=O)Cc1ccncc1)CC3", "note": "[Compound 11, N-[(pyridin-4-yl)acetyl]-L-alanyl-N-methyl-L-alanyl-N^1-[(1S,9S)-9-ethyl-5-fluoro-9-hydroxy-4-methyl-10,13-dioxo-2,3,9,10,13,15-hexahydro-1H, 12H-benzo[de]pyrano [3′,4′:6,7]indolizino [1,2-b]quinolin-1-yl]-L-aspartamide]", "values": [{"measurement": "pIC50", "setting": "NCI H292 [5]; with legumain, read-out: NCI H292 IC50 w legumain", "value": "7.00 to 7.96"}, {"measurement": "pIC50", "setting": "NCI H292 [5]; without legumain, read-out: NCI H292 IC50 w/o", "value": "7.00 to 7.96"}, {"measurement": "pIC50", "setting": "HT29 [6]; with legumain, read-out: HT29 IC50 w legumain", "value": "< 7.00"}, {"measurement": "pIC50", "setting": "HT29 [6]; without legumain, read-out: HT29 IC50 w/o", "value": "< 7.00"}, {"measurement": "pIC50", "setting": "SUM149 [7]; with legumain, read-out: SUM149 IC50 w legumain", "value": "8.00 to 8.96"}, {"measurement": "pIC50", "setting": "SUM149 [7]; without legumain, read-out: SUM149 IC50 w/o", "value": "8.00 to 8.96"}]}
